Source: patent publication US20230131899A1, “INHIBITORS OF MICROBIALLY INDUCED AMYLOID” (Axial Therapeutics, Inc., priority 2020, published 2023)
Like-named read-outs stand apart in the source and are kept apart here.

Test system: CsgA gene expression (csgBAC promoter-GFP reporter) in E. coli UTI89
Assay: In vitro live cell fluorescent reporter assay of CsgA transcription (Reporter Assay)
Type: cell-based
Method in brief: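 Chromosomal single-copy csgBAC promoter–GFP reporter in E. coli UTI89, started at OD600 0.003 in YESCA broth with compound (0.14–100 μM, 1% DMSO), 20 h at 27 °C. GFP (ex 485/em 525 nm) background-subtracted and normalized to vehicle; IC50 and X[50] from curve fits. OD600 tracked growth effects.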

[1] = Escherichia coli, read-out: Reporter Assay Abs IC50 (μM), median Abs IC50 in the CsgA reporter assay, N/A = maximum expression reduction is <50% of control
[2] = Escherichia coli, read-out: Reporter Assay Abs IC50, activity range, class symbol
[3] = Escherichia coli, read-out: Reporter Assay Abs IC50 (activity range), median Abs IC50 in the CsgA reporter assay, class symbol

SMILES | IC50 [1] | IC50 [2] | IC50 [3] | IC50 (read-out: Reporter Assay Abs IC50 (activity range), median Abs IC50 in the CsgA reporter assay, class symbol) | IC50 (read-out: Reporter Assay Abs IC50, median Abs IC50 in the CsgA reporter assay, N/A = maximum expression reduction is <50% of control)
CC(C)(C)c1ccc(Cc2c(-c3cccc(C(F)(F)F)c3)c3n(c(=O)c2Cl)C(C(=O)O)CN3Cc2ccccc2)cc1 (stereo not drawn) [Compound 216, 1-benzyl-7-(4-(tert-butyl)benzyl)-6-chloro-5-oxo-8-(3-(trifluoromethyl)phenyl)-1,2,3,5-tetrahydroimidazo[1,2-a]pyridine-3-carboxylic acid] | 0.7 µM | < 1.3 µM | – | – | –
O=C(O)C1CN(CCCCCCCN2CC(C(=O)O)n3c2c(-c2cccc(C(F)(F)F)c2)c(Cc2cccc4ccccc24)c(Cl)c3=O)c2c(-c3cccc(C(F)(F)F)c3)c(Cc3cccc4ccccc34)c(Cl)c(=O)n21 (stereo not drawn) [Compound 188, 1,1′-(heptane-1,7-diyl)bis(6-chloro-7-(naphthalen-1-ylmethyl)-5-oxo-8-(3-(trifluoromethyl)phenyl)-1,2,3,5-tetrahydroimidazo[1,2-a]pyridine-3-carboxylic acid)] | 0.8 µM | < 1.3 µM | – | – | –
O=C(O)C1CN(Cc2cccc(O)c2)c2c(-c3cccc(C(F)(F)F)c3)c(Cc3cccc4ccccc34)c(Cl)c(=O)n21 (stereo not drawn) [Compound 196, 6-chloro-1-(3-hydroxybenzyl)-7-(naphthalen-1-ylmethyl)-5-oxo-8-(3-(trifluoromethyl)phenyl)-1,2,3,5-tetrahydroimidazo[1,2-a]pyridine-3-carboxylic acid] | 2.8 µM | 1.3 to 4.5 µM | – | – | –
O=C(O)C1CN(C[C@H](O)[C@@H](O)[C@H](O)[C@H](O)CO)S(=O)(=O)c2c(-c3cccc(C(F)(F)F)c3)c(Cc3cccc4ccccc34)cc(=O)n21 (mixture of isomers) [Compound 066, 8-(naphthalen-1-ylmethyl)-6-oxo-2-((2S,3R,4R,5R)-2,3,4,5,6-pentahydroxyhexyl)-9-(3-(trifluoromethyl)phenyl)-3,4-dihydro-2H,6H-pyrido[1,2-e][1,2,5]thiadiazine-4-carboxylic acid 1,1-dioxide] | 40.2 µM | – | > 10 µM | – | –
CCc1c(Cc2cccc3ccccc23)c(-c2cccc(C(F)(F)F)c2)c2n(c1=O)C(C(=O)O)CN2Cc1ccccc1 (stereo not drawn) [Compound 140, 1-benzyl-6-ethyl-7-(naphthalen-1-ylmethyl)-5-oxo-8-(3-(trifluoromethyl)phenyl)-1,2,3,5-tetrahydroimidazo[1,2-a]pyridine-3-carboxylic acid] | 1 µM | < 1.3 µM | – | – | –
O=C(O)[C@H]1CN(Cc2ccccc2)c2c(-c3cccc(C(F)(F)F)c3)c(Cc3cccc4ccccc34)c(Cl)c(=O)n21 (single isomer, unassigned) [Compound 004b] | 0.5 µM | < 1.3 µM | – | – | –
O=C(O)C1CN(Cc2ccc(-c3ccccc3)cc2)c2c(-c3cccc(C(F)(F)F)c3)c(Cc3cccc4ccccc34)c(Cl)c(=O)n21 (stereo not drawn) [Compound 202, 1-([1,1′-biphenyl]-4-ylmethyl)-6-chloro-7-(naphthalen-1-ylmethyl)-5-oxo-8-(3-(trifluoromethyl)phenyl)-1,2,3,5-tetrahydroimidazo[1,2-a]pyridine-3-carboxylic acid] | 0.8 µM | < 1.3 µM | – | – | –
O=C(O)C1CN(CCCCCCN2CC(C(=O)O)n3c2c(-c2cccc(C(F)(F)F)c2)c(Cc2cccc4ccccc24)c(Cl)c3=O)c2c(-c3cccc(C(F)(F)F)c3)c(Cc3cccc4ccccc34)c(Cl)c(=O)n21 (stereo not drawn) [Compound 193, 1,1′-(hexane-1,6-diyl)bis(6-chloro-7-(naphthalen-1-ylmethyl)-5-oxo-8-(3-(trifluoromethyl)phenyl)-1,2,3,5-tetrahydroimidazo[1,2-a]pyridine-3-carboxylic acid)] | 0.6 µM | < 1.3 µM | – | – | –
Nc1c(Cc2cccc3ccccc23)c(-c2cccc(C(F)(F)F)c2)c2n(c1=O)C(C(=O)O)CS2 (single isomer, unassigned) [Compound 020b, 6-amino-7-(naphthalen-1-ylmethyl)-5-oxo-8-(3-(trifluoromethyl)phenyl)-2,3-dihydro-5H-thiazolo[3,2-a]pyridine-3-carboxylic acid] | – | – | – | 4.6 to 10 µM | 5.7 µM
CC(C)N1CC(C(=O)O)n2c(c(-c3cccc(C(F)(F)F)c3)c(Cc3cccc4ccccc34)c(C(N)=O)c2=O)S1(=O)=O (stereo not drawn) [Compound 175, 7-carbamoyl-2-isopropyl-8-(naphthalen-1-ylmethyl)-6-oxo-9-(3-(trifluoromethyl)phenyl)-3,4-dihydro-2H,6H-pyrido[1,2-e][1,2,5]thiadiazine-4-carboxylic acid 1,1-dioxide] | 1.4 µM | 1.3 to 4.5 µM | – | – | –
CCc1c(Cc2cccc3ccccc23)c(-c2cccc(C(F)(F)F)c2)c2n(c1=O)C(C(=O)O)CN2Cc1ccc(OC)cc1 (stereo not drawn) [Compound 161, 6-ethyl-1-(4-methoxybenzyl)-7-(naphthalen-1-ylmethyl)-5-oxo-8-(3-(trifluoromethyl)phenyl)-1,2,3,5-tetrahydroimidazo[1,2-a]pyridine-3-carboxylic acid] | 2.1 µM | 1.3 to 4.5 µM | – | – | –
O=C(O)C1CN(CCCCCO)c2c(-c3cccc(C(F)(F)F)c3)c(Cc3cccc4ccccc34)c(Cl)c(=O)n21 (stereo not drawn) [Compound 199, 6-chloro-1-(5-hydroxypentyl)-7-(naphthalen-1-ylmethyl)-5-oxo-8-(3-(trifluoromethyl)phenyl)-1,2,3,5-tetrahydroimidazo[1,2-a]pyridine-3-carboxylic acid] | 6.9 µM | 4.6 to 10 µM | – | – | –
O=C(O)C1CSc2c(-c3cccc(C(F)(F)F)c3)c(Cc3cccc4ccccc34)cc(=S)n21 (stereo not drawn) [Compound 054, 7-(naphthalen-1-ylmethyl)-5-thioxo-8-(3-(trifluoromethyl)phenyl)-2,3-dihydro-5H-thiazolo[3,2-a]pyridine-3-carboxylic acid] | 6.3 µM | – | 4.6 to 10 µM | – | –
O=C(O)C1CN(Cc2ccccc2)c2c(-c3cccc(Br)c3)c(Cc3cccc4ccccc34)c(Cl)c(=O)n21 (stereo not drawn) [Compound 198, 1-benzyl-8-(3-bromophenyl)-6-chloro-7-(naphthalen-1-ylmethyl)-5-oxo-1,2,3,5-tetrahydroimidazo[1,2-a]pyridine-3-carboxylic acid] | 5 µM | 4.6 to 10 µM | – | – | –
CC1(C(=O)O)CNS(=O)(=O)c2c(-c3cccc(C(F)(F)F)c3)c(Cc3cccc4ccccc34)cc(=O)n21 (stereo not drawn) [Compound 042, 4-methyl-8-(naphthalen-1-ylmethyl)-6-oxo-9-(3-(trifluoromethyl)phenyl)-3,4-dihydro-2H,6H-pyrido[1,2-e][1,2,5]thiadiazine-4-carboxylic acid 1,1-dioxide] | 3.3 µM | – | 1.3 to 4.5 µM | – | –
CC(C)N1CC(C(=O)O)n2c1c(-c1cccc(C(F)(F)F)c1)c(Cc1cccc3ccccc13)c(Cl)c2=O (stereo not drawn) [Compound 179, 6-chloro-1-isopropyl-7-(naphthalen-1-ylmethyl)-5-oxo-8-(3-(trifluoromethyl)phenyl)-1,2,3,5-tetrahydroimidazo[1,2-a]pyridine-3-carboxylic acid] | 1.4 µM | 1.3 to 4.5 µM | – | – | –
CN1CC(C(=O)O)n2c(c(-c3cccc(C(F)(F)F)c3)c(Cc3cccc4ccccc34)c(NCc3ccccc3)c2=O)S1(=O)=O (stereo not drawn) [Compound 071] | 1.6 µM | – | 1.3 to 4.5 µM | – | –
O=C(O)C1CN(CCCO)S(=O)(=O)c2c(-c3cccc(C(F)(F)F)c3)c(Cc3cccc4ccccc34)cc(=O)n21 (stereo not drawn) [Compound 056, 2-(3-hydroxypropyl)-8-(naphthalen-1-ylmethyl)-6-oxo-9-(3-(trifluoromethyl)phenyl)-3,4-dihydro-2H,6H-pyrido[1,2-e][1,2,5]thiadiazine-4-carboxylic acid 1,1-dioxide] | 19.8 µM | – | > 10 µM | – | –
